The values that follow come from PubChem BioAssay (NCI).

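Cultured in 96-well plates, cells were exposed to test compound for 48 hours across five concentrations. TGI: concentration producing complete growth inhibition.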

Among the test systems are 786-0 renal; ACHN renal; HCC-2998 colon; HOP-92 NSCLC; IGROV1 ovarian; K-562 leukemia; MCF7 breast; MDA-MB-231 breast; OVCAR-4 ovarian; OVCAR-5 ovarian; OVCAR-8 ovarian; RXF 393 renal; SF-295 CNS; SK-MEL-28 melanoma; SNB-19 CNS; SW-620 colon; T-47D breast; U251 CNS; UACC-62 melanoma.
Common to all, as to assay: NCI-60 cell line screen, 48 h

Consider `COC(=O)C1=C(O)C(C(=O)OC)[C@]2(O)[C@H](C(=O)OC)[C@H]1C[C@@H](c1ccc(F)cc1)[C@H]2C(=O)OC` (some centres undefined), for which the TGI in the test with 786-0 renal was 32 µM; with ACHN renal, 43.5 µM; in the test with HCC-2998 colon, 28.7 µM; in the test with HOP-92 NSCLC, more than 100 µM; in the test with IGROV1 ovarian, 59.8 µM; in the test with K-562 leukemia, more than 100 µM. Also, the TGI is more than 100 µM with MCF7 breast; more than 100 µM with MDA-MB-231 breast; more than 100 µM in the test with OVCAR-4 ovarian; 37.5 µM in the test on OVCAR-5 ovarian; 86.8 µM with OVCAR-8 ovarian; 26.5 µM with RXF 393 renal. In addition, the TGI in the test on SF-295 CNS was 43.9 µM; in the test with SK-MEL-28 melanoma it was 27.4 µM; in the test with SNB-19 CNS, more than 100 µM; in the test on SW-620 colon, 53.4 µM; in the test with T-47D breast it was more than 100 µM; with U251 CNS, 31.9 µM. The same molecule came in with a TGI in the test on UACC-62 melanoma of 33.7 µM.
`O=C1CC(NC(=O)C(F)(F)F)c2c1csc2Br` (centres undefined): the TGI is 83.1 µM with 786-0 renal; more than 100 µM in the test with ACHN renal; more than 100 µM in the test with HCC-2998 colon; more than 100 µM in the test on HOP-92 NSCLC; more than 100 µM with IGROV1 ovarian; more than 100 µM in the test with K-562 leukemia. In addition, the TGI in the test on MCF7 breast is 9.85 µM; with MDA-MB-231 breast, more than 100 µM; with OVCAR-4 ovarian, more than 100 µM; in the test on OVCAR-5 ovarian it was 6.03 µM; in the test with OVCAR-8 ovarian, more than 100 µM; in the test on RXF 393 renal it was 47.9 µM. For the same molecule, the TGI in the test with SF-295 CNS, in the test on SK-MEL-28 melanoma, in the test on SNB-19 CNS, with SW-620 colon, in the test with T-47D breast and with U251 CNS was more than 100 µM each time. In the test with UACC-62 melanoma, this molecule gave a TGI of more than 100 µM.
For the molecule `C=C1C(=O)C23CC1C[C@H](OC(C)=O)[C@H]2C1(C)C(OC(C)=O)C[C@H](O)C(C)(C)[C@H]1C(=O)[C@@H]3OC(C)=O` (some centres undefined), the TGI in the test on 786-0 renal was 9.64 µM; in the test on ACHN renal it was 14.1 µM; in the test on HCC-2998 colon it was 35.9 µM; with HOP-92 NSCLC it was 7.84 µM; in the test on IGROV1 ovarian, 25.8 µM; with K-562 leukemia it was more than 21 µM. Besides, the TGI in the test with MCF7 breast came to 14 µM; with MDA-MB-231 breast, 11.7 µM; with OVCAR-4 ovarian, 16.3 µM; in the test on OVCAR-5 ovarian, 22.5 µM; with OVCAR-8 ovarian, 7.9 µM; in the test with RXF 393 renal, 9.75 µM. The TGI with SF-295 CNS was 31.9 µM; in the test on SK-MEL-28 melanoma, 13.2 µM; in the test on SNB-19 CNS it was 34.6 µM; with SW-620 colon it was 3.6 µM; with T-47D breast, 5.44 µM; in the test with U251 CNS, 29.3 µM. In addition, in the test with UACC-62 melanoma, the TGI is 9.51 µM.
As to `O=C(N/N=C/c1ccc2c(c1)OCO2)Nc1ccccc1Cl`, the TGI is more than 55 µM in the test with 786-0 renal; more than 100 µM in the test with ACHN renal; 5.14 µM in the test with HCC-2998 colon; more than 40 µM in the test on HOP-92 NSCLC; more than 35.3 µM with IGROV1 ovarian; more than 100 µM in the test on K-562 leukemia. Further, the TGI with MCF7 breast is more than 100 µM; with MDA-MB-231 breast, more than 100 µM; in the test on OVCAR-4 ovarian it was more than 100 µM; in the test with OVCAR-5 ovarian, more than 100 µM; in the test on OVCAR-8 ovarian, more than 43.1 µM; with RXF 393 renal it was 12.2 µM. The TGI with SF-295 CNS was 6.84 µM; with SK-MEL-28 melanoma, more than 100 µM; in the test with SNB-19 CNS, more than 79.3 µM; in the test on SW-620 colon, more than 100 µM; in the test with T-47D breast, more than 38.3 µM; in the test on U251 CNS, more than 100 µM. This molecule gave a TGI in the test on UACC-62 melanoma of more than 83.1 µM.
As for `CC[C@](O)(CC(=O)O[C@H]1C(=O)O[C@@H]2C[C@H]3C(C)=CC(=O)[C@@H](O)[C@]3(C)[C@H]3[C@@]4(O)OC[C@]32[C@@H]1[C@@H](C)[C@H]4O)C(C)C`, the TGI with 786-0 renal, in the test on ACHN renal, in the test on HCC-2998 colon, in the test with HOP-92 NSCLC, in the test on IGROV1 ovarian and in the test with K-562 leukemia was less than 0.01 µM throughout. In addition, the TGI was less than 0.0392 µM in the test with MCF7 breast; less than 0.0119 µM with MDA-MB-231 breast; less than 0.0144 µM with OVCAR-4 ovarian; less than 0.01 µM in the test with OVCAR-5 ovarian; less than 0.01 µM in the test with OVCAR-8 ovarian; less than 0.01 µM with RXF 393 renal. In addition, the TGI in the test with SF-295 CNS, in the test on SK-MEL-28 melanoma, in the test with SNB-19 CNS, in the test on SW-620 colon, in the test on T-47D breast and in the test with U251 CNS was less than 0.01 µM throughout. The molecule further displayed a TGI in the test with UACC-62 melanoma of less than 0.01 µM.
`O=C1C(=O)c2c(oc(=O)c3ccccc23)-c2ccccc21`: the TGI with 786-0 renal, with ACHN renal, with HCC-2998 colon, in the test with HOP-92 NSCLC, with IGROV1 ovarian and in the test with K-562 leukemia was more than 25 µM each time. Moreover, the TGI was more than 25 µM in the test with MCF7 breast; more than 25 µM in the test on MDA-MB-231 breast; 20.3 µM in the test on OVCAR-4 ovarian; more than 25 µM in the test with OVCAR-5 ovarian; more than 25 µM in the test with OVCAR-8 ovarian; more than 25 µM in the test with RXF 393 renal. Moreover, the TGI in the test with SF-295 CNS, in the test with SK-MEL-28 melanoma, in the test with SNB-19 CNS, in the test on SW-620 colon, in the test on T-47D breast and in the test with U251 CNS was more than 25 µM in each case. Besides, in the test with UACC-62 melanoma, the TGI is more than 25 µM.
